SMILES strings stand for the structures. ≈ marks a conversion by molar mass, not a printed value.

Test [1] in a line: DPPH radical scavenging activity. To be noted: mean ± SD (n = 3).
Protocol: Briefly, 150 μL of DPPH solution (dissolved 0.2 mM in methanol) was mixed with 50 μL of the sample at different concentrations. The mixture was stirred and incubated in the dark at 30°C for 30 min, and the absorbance was determined at 517 nm (Asample). The absorbance of a blank (Ablank) and negative control (Acontrol) composed of only the sample and DPPH solutions was also determined, respectively. The DPPH radical scavenging activity of the sample was calculated by the following equation: DPPHscavengingactivity = [1 − (Asample–Ablank)/Acontrol] × 100%. Vc was used as a positive control in this experiment.
Test [2] in a line: ABTS radical scavenging activity. To be noted: mean ± SD (n = 3). On the procedure: The ABTS radical scavenging activity of the sample was carried out using the method reported by Sun et al. with minor modification. Briefly, 1.76 mL of K2S2O8 (140 mM) and 100 mL of ABTS solution (7 mM) were mixed and stored in the dark at 25°C for 12 h. […] The absorbance of a blank (Ablank) and negative control (Acontrol) composed of only the sample and diluted ABTS^+ radical solutions was also determined, respectively. The ABTS radical scavenging activity of the sample was calculated by the following equation: […] = [1 - (Asample-Ablank)/Acontrol] × 100%. Vc was used as a positive control in this experiment.

Consider `O=C1O[C@H]([C@@H](O)CO)C(O)=C1O` [Vc, L-Ascorbic acid], for which the “IC50 DPPH assay” value in test [1] was found to be 6.0 ± 0.2 µg/mL (≈ 34.1 µM). Further, the “IC50 ABTS assay” value in test [2] turned out to be 1.2 ± 0.1 µg/mL (≈ 6.81 µM).

The values are drawn from article PMC7700040, “Phytochemical Analysis, Anti-inflammatory, and Antioxidant Activities of Dendropanax dentiger Roots” (BioMed Research International, 2020).
